ChEMBL document CHEMBL3272271, “Folate antagonists. 13. 2,4-Diamino-6-](alpha,alpha,alpha-trifluoro-m-tolyl)thio]quinazoline and related 2,4-diamino-6-[(phenyl- and naphthyl)thio]quinazolines, a unique class of antimetabolites with extraordinary antimalarial and antibacterial effects” (J Med Chem, 1978)
In brackets after ≈: the same amount, converted by molar mass. Activity calls are given as the source filed them. The calls are words filed in the database; no cut-off is given here.

What was measured:
Plasmodium berghei [1] = test: Antimalarial activity against Plasmodium berghei infected in mouse assessed as increase in mean survival days of host at 5 mg/kg, sc administered 72 hrs after infection relative to control; type: functional; conditions: route subcutaneous
Enterococcus faecalis = test: Antibacterial activity against Streptococcus faecalis MGH-2 by gradient plate test; type: functional
Shigella sonnei = test: Antibacterial activity against Shigella sonnei C-10 by gradient plate test; type: functional
Plasmodium berghei [2] = test: Antimalarial activity against Plasmodium berghei infected in mouse assessed as increase in mean survival days of host at 20 mg/kg, sc administered 72 hrs after infection relative to control; type: functional; conditions: route subcutaneous
Pseudomonas aeruginosa = test: Antibacterial activity against Pseudomonas aeruginosa 28 by gradient plate test; type: functional
Plasmodium berghei [3] = test: Antimalarial activity against Plasmodium berghei infected in mouse assessed as increase in mean survival days of host at 2.5 mg/kg, sc administered 72 hrs after infection relative to control; type: functional; conditions: route subcutaneous
Plasmodium berghei [4] = test: Antimalarial activity against Plasmodium berghei infected in mouse assessed as disease cure from parasite infection at 40 mg/kg, sc administered 72 hrs after infection; type: functional, organism-based; set-up: dose 40 mg/kg
Plasmodium berghei [5] = test: Antimalarial activity against Plasmodium berghei infected in mouse assessed as disease cure from parasite infection at 640 mg/kg, sc administered 72 hrs after infection; type: functional, organism-based; set-up: dose 640 mg/kg
Plasmodium berghei [6] = test: Antimalarial activity against Plasmodium berghei infected in mouse assessed as disease cure from parasite infection at 20 mg/kg, sc administered 72 hrs after infection; type: functional, organism-based; set-up: dose 20 mg/kg
Plasmodium berghei [7] = test: Antimalarial activity against Plasmodium berghei infected in mouse assessed as disease cure from parasite infection at 320 mg/kg, sc administered 72 hrs after infection; type: functional, organism-based; set-up: dose 320 mg/kg
Plasmodium berghei [8] = test: Antimalarial activity against Plasmodium berghei infected in mouse assessed as increase in mean survival days of host at 10 mg/kg, sc administered 72 hrs after infection relative to control; type: functional; conditions: route subcutaneous
Plasmodium berghei [9] = test: Antimalarial activity against Plasmodium berghei infected in mouse assessed as increase in mean survival days of host at 1.25 mg/kg, sc administered 72 hrs after infection relative to control; type: functional; conditions: route subcutaneous
Escherichia coli = test: Antibacterial activity against Escherichia coli Vogel by gradient plate test; type: functional
Staphylococcus aureus [10] = test: Antibacterial activity against Staphylococcus aureus UC-96 by gradient plate test; type: functional
Plasmodium berghei [11] = test: Antimalarial activity against Plasmodium berghei infected in mouse assessed as disease cure from parasite infection at 160 mg/kg, sc administered 72 hrs after infection; type: functional, organism-based; set-up: dose 160 mg/kg
Staphylococcus aureus [12] = test: Antibacterial activity against drug-resistant Staphylococcus aureus S18713 by gradient plate test; type: functional
Plasmodium berghei [13] = test: Antimalarial activity against Plasmodium berghei infected in mouse assessed as disease cure from parasite infection at 80 mg/kg, sc administered 72 hrs after infection; type: functional, organism-based; set-up: dose 80 mg/kg
Plasmodium berghei [14] = test: Antimalarial activity against Plasmodium berghei infected in mouse assessed as increase in mean survival days of host at 40 mg/kg, sc administered 72 hrs after infection relative to control; type: functional; conditions: route subcutaneous
Plasmodium gallinaceum [15] = test: Antimalarial activity against sporozoite-induced Plasmodium gallinaceum infected in white leghorn chicken assessed as disease cure from parasite infection at 80 mg/kg, sc administered 72 hrs after infection; type: functional, organism-based; set-up: dose 80 mg/kg
Plasmodium berghei [16] = test: Antimalarial activity against Plasmodium berghei infected in mouse assessed as increase in mean survival days of host at 80 mg/kg, sc administered 72 hrs after infection relative to control; type: functional; conditions: route subcutaneous
Plasmodium gallinaceum [17] = test: Antimalarial activity against sporozoite-induced Plasmodium gallinaceum infected in white leghorn chicken assessed as disease cure from parasite infection at 320 mg/kg, sc administered 72 hrs after infection; type: functional, organism-based; set-up: dose 320 mg/kg
[18] = system: Mycobacterium tuberculosis; test: Antibacterial activity against Mycobacterium tuberculosis H37Ra by gradient plate test; type: functional
Plasmodium berghei [19] = test: Antimalarial activity against Plasmodium berghei infected in mouse assessed as increase in mean survival days of host at 160 mg/kg, sc administered 72 hrs after infection relative to control; type: functional; conditions: route subcutaneous
Plasmodium gallinaceum [20] = test: Antimalarial activity against sporozoite-induced Plasmodium gallinaceum infected in white leghorn chicken assessed as disease cure from parasite infection at 160 mg/kg, sc administered 72 hrs after infection; type: functional, organism-based; set-up: dose 160 mg/kg
Plasmodium berghei [21] = test: Ratio of quinine hydrochloride SD90 to compound SD90 for trophozoite-induced Plasmodium berghei infected in mouse assessed as daily dose required to suppression of 90% parasite infection administered with diet for 6 days; type: functional
Plasmodium berghei [22] = test: Antimalarial activity against trophozoite-induced Plasmodium berghei infected in mouse assessed as daily dose required to suppression of 90% parasite infection administered with diet for 6 days; type: functional
Plasmodium berghei [23] = test: Antimalarial activity against Plasmodium berghei infected in mouse assessed as increase in mean survival days of host at 320 mg/kg, sc administered 72 hrs after infection relative to control; type: functional; conditions: route subcutaneous
Plasmodium gallinaceum [24] = test: Antimalarial activity against trophozoite-induced Plasmodium gallinaceum infected in white leghorn chicken assessed as increase in mean survival days of host at 40 mg/kg, sc administered 72 hrs after infection relative to control; type: functional; conditions: route subcutaneous
Plasmodium gallinaceum [25] = test: Antimalarial activity against trophozoite-induced Plasmodium gallinaceum infected in white leghorn chicken assessed as increase in mean survival days of host at 20 mg/kg, sc administered 72 hrs after infection relative to control; type: functional; conditions: route subcutaneous
Plasmodium gallinaceum [26] = test: Antimalarial activity against trophozoite-induced Plasmodium gallinaceum infected in white leghorn chicken assessed as increase in mean survival days of host at 160 mg/kg, sc administered 72 hrs after infection relative to control; type: functional; conditions: route subcutaneous
Plasmodium gallinaceum [27] = test: Antimalarial activity against trophozoite-induced Plasmodium gallinaceum infected in white leghorn chicken assessed as increase in mean survival days of host at 320 mg/kg, sc administered 72 hrs after infection relative to control; type: functional; conditions: route subcutaneous
Plasmodium gallinaceum [28] = test: Antimalarial activity against trophozoite-induced Plasmodium gallinaceum infected in white leghorn chicken assessed as increase in mean survival days of host at 80 mg/kg, sc administered 72 hrs after infection relative to control; type: functional; conditions: route subcutaneous
Plasmodium gallinaceum [29] = test: Antimalarial activity against trophozoite-induced Plasmodium gallinaceum infected in white leghorn chicken assessed as increase in mean survival days of host at 10 mg/kg, sc administered 72 hrs after infection relative to control; type: functional; conditions: route subcutaneous
Plasmodium gallinaceum [30] = test: Antimalarial activity against trophozoite-induced Plasmodium gallinaceum infected in white leghorn chicken assessed as disease cure from parasite infection at 320 mg/kg, sc administered 72 hrs after infection; type: functional, organism-based; set-up: dose 320 mg/kg
Plasmodium gallinaceum [31] = test: Antimalarial activity against trophozoite-induced Plasmodium gallinaceum infected in white leghorn chicken assessed as disease cure from parasite infection at 160 mg/kg, sc administered 72 hrs after infection; type: functional, organism-based; set-up: dose 160 mg/kg

SMILES	MST (Plasmodium berghei [1]) [days]	MIC (Enterococcus faecalis) [µg/mL]	MIC (Shigella sonnei) [µg/mL]	MST (Plasmodium berghei [2]) [days]	MIC (Pseudomonas aeruginosa) [µg/mL]	Activity (Plasmodium berghei [4])	Activity (Plasmodium berghei [5])	Activity (Plasmodium berghei [7])	MST (Plasmodium berghei [8]) [days]	MIC (Escherichia coli) [µg/mL]	MIC (Staphylococcus aureus [10]) [µg/mL]	Activity (Plasmodium berghei [11])	MIC (Staphylococcus aureus [12]) [µg/mL]	Activity (Plasmodium berghei [13])	MST (Plasmodium berghei [14]) [days]	MST (Plasmodium berghei [16]) [days]	MIC [18] [µg/mL]	MST (Plasmodium berghei [19]) [days]	further results
Cc1c(Sc2ccc3ccccc3c2)ccc2nc(N)nc(N)c12	10.9	< 2.5	< 2.5	20.9	> 25	Active	Active	Active	12.9	< 2.5	< 2.5	Active	< 2.5	Active					MST (Plasmodium berghei [3]): 6.5 days; Activity (Plasmodium berghei [6]): Active; MST (Plasmodium berghei [9]): 1.9 days
Nc1nc(N)c2c(Cl)c(Sc3cccc(C(F)(F)F)c3)ccc2n1		< 0.25	2 (≈ 5.39 µM)	5.9	> 25	Active	Active	Active		0.5 (≈ 1.35 µM)	< 0.25	Active	< 0.25	Active	14.7	19.9	10 (≈ 27 µM)	24.9	Activity (Plasmodium gallinaceum [15]): Active; Activity (Plasmodium gallinaceum [17]): Active; Activity (Plasmodium gallinaceum [20]): Active
Nc1nc(N)c2cc(Sc3cc(Cl)ccc3Cl)ccc2n1	2.3	< 0.25	10 (≈ 29.7 µM)	5.9	> 25		Active	Active	2.9	1 (≈ 2.97 µM)	< 0.25	Active	< 0.25		8.2	9.8		8.8	Ratio (Plasmodium berghei [21]): 17; SD90 (Plasmodium berghei [22]): 4.5 mg/kg/day
CC(C)(C)c1ccc(Sc2ccc3nc(N)nc(N)c3c2)cc1		< 0.25	15 (≈ 46.2 µM)	1	> 25		Active	Active	1.1	10 (≈ 30.8 µM)	< 0.25		< 0.25		2.6	6		7.8	MST (Plasmodium berghei [23]): 17.9 days; Ratio (Plasmodium berghei [21]): 4.1; SD90 (Plasmodium berghei [22]): 18 mg/kg/day
Nc1nc(N)c2cc(Sc3ccc(-c4ccccc4)cc3)ccc2n1	1.1			7.9				Active	6.5			Active		Active	12.1	15.6			
Nc1nc(N)c2cc(Sc3cccc(Cl)c3)ccc2n1		10 (≈ 33 µM)	20 (≈ 66.1 µM)	0.5	> 25		Active	Active	0.5	10 (≈ 33 µM)	2.5 (≈ 8.26 µM)		5 (≈ 16.5 µM)		3.5	4.3	> 25	4.9	MST (Plasmodium berghei [23]): 20.9 days
Nc1nc(N)c2cc(NCc3ccc(Cl)c(Cl)c3)ccc2n1																			MST (Plasmodium gallinaceum [24]): 12.1 days; MST (Plasmodium gallinaceum [25]): 7 days; MST (Plasmodium gallinaceum [26]): 15.3 days; MST (Plasmodium gallinaceum [27]): 16.6 days; MST (Plasmodium gallinaceum [28]): 12.9 days; MST (Plasmodium gallinaceum [29]): 2.2 days
CN(Cc1ccc(Cl)c(Cl)c1)c1ccc2nc(N)nc(N)c2c1						Active	Active	Active				Active		Active					Activity (Plasmodium berghei [6]): Active; Activity (Plasmodium gallinaceum [30]): Active; Activity (Plasmodium gallinaceum [31]): Active
Cc1c(Sc2ccc(Cl)c(Cl)c2)ccc2nc(N)nc(N)c12	7.3			15.4		Active	Active	Active	7.9			Active		Active					MST (Plasmodium berghei [3]): 2.5 days; Activity (Plasmodium berghei [6]): Active; MST (Plasmodium berghei [9]): 1.3 days
Nc1nc(N)c2cc(Sc3c(Cl)c(Cl)c(Cl)c(Cl)c3Cl)ccc2n1	2.7	1.5 (≈ 3.4 µM)	> 25	10.7	> 25	Active		Active	6.6	> 25	10 (≈ 22.7 µM)	Active	20 (≈ 45.4 µM)	Active	18.1				MST (Plasmodium berghei [3]): 2 days
CN(Cc1ccc(Cl)c(Cl)c1)c1ccc2nc(N)nc(N)c2c1.Cl																			Ratio (Plasmodium berghei [21]): 470; SD90 (Plasmodium berghei [22]): 0.16 mg/kg/day
CC(=O)Nc1ccc(Sc2ccc3nc(N)nc(N)c3c2)cc1		< 0.25	> 25	6.3	> 25		Active	Active	3.3	2.5 (≈ 7.68 µM)	< 0.25	Active	< 0.25	Active	12.9	24.9	> 25		
Nc1nc(N)c2cc(Sc3cc(Cl)cc(Cl)c3)ccc2n1		< 0.25	20 (≈ 59.3 µM)	4.1	> 25		Active	Active	1.1	2 (≈ 5.93 µM)	< 0.25	Active	< 0.25		6.9	12.7	20 (≈ 59.3 µM)	17.9	
Nc1nc(N)c2cc(Sc3ccccc3Cl)ccc2n1	0.3	< 0.25	2 (≈ 6.61 µM)	0.5	> 25			Active	0.3	< 0.25	< 0.25	Active	< 0.25		0.5	8.1		10.9	MST (Plasmodium berghei [23]): 18.9 days; MST (Plasmodium gallinaceum [24]): 7.6 days; MST (Plasmodium gallinaceum [25]): 6 days; MST (Plasmodium gallinaceum [26]): 19.8 days; MST (Plasmodium gallinaceum [27]): 20.8 days; MST (Plasmodium gallinaceum [28]): 10.2 days; MST (Plasmodium gallinaceum [29]): 0 days
COc1cccc(Sc2ccc3nc(N)nc(N)c3c2)c1		< 0.25	1 (≈ 3.35 µM)	1.5	> 25		Active	Active	0.3	< 0.25	< 0.25		< 0.25		5.7	8.3		11.7	MST (Plasmodium berghei [23]): 12.2 days
COc1cc(Cc2cnc(N)nc2N)cc(OC)c1OC [TRIMETHOPRIM]		< 0.25	< 0.25		> 25					< 0.25	< 0.25		< 0.25				> 25		Ratio (Plasmodium berghei [21]): 0.6; SD90 (Plasmodium berghei [22]): 120 mg/kg/day
